# Test results taken from patent publication US10292912B2, “Personal care compositions” (Colgate-Palmolive Company, priority 2015, dated 2019).
# Experiment: Preparation and aging of 3% SnCl2.2H2O solutions with TSPP or TKPP
# Format: physicochemical
# Details: room temperature
# Description: Solutions are prepared by dissolving TSPP in deionized water (mixing under heat if necessary) and then adding 0.6 g of SnCl2.2H2O to make 20-gram solutions.
# A 3% SnCl2.2H2O solution is used as a control.
# Solutions are prepared by dissolving TKPP in deionized water (mixing under heat if necessary) and then adding 0.6 g SnCl2.2H2O to make 20-g solutions.
structure (smiles),measurement,value
"O.O.[Cl][Sn][Cl] [3% SnCl2.2H2O solution, SnCl2.2H2O]",appearance after aging overnight,form a cloudy precipitate that settles
